Source: patent publication US6872557B1, “Gene encoding novel human secretory phospholipase A2” (Shionogi & Co., Ltd., priority 1999, dated 2005)

Key:
[1] = target: T1, human IID type secretory PLA2 (Homo sapiens, UniProt Q9UNK4); assay: Inhibition of secretory PLA2 activity, release of 14C-oleic acid from 14C-POPC; assay type: biochemical; conditions: 14C-POPC substrate, 40° C., 60 min, various concentrations of Indoxam; FIG. 4
T1 construct: made in house
T1 sequence (Q9UNK4 21-145): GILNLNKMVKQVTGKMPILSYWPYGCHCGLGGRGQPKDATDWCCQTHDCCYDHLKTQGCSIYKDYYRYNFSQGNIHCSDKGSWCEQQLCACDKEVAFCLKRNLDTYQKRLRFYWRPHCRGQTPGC
Protocol: (§1) Inhibitory activity against this novel type of human secretory type PLA2 was determined with Indoxam that is a 1-oxamoylindolidine derivative. It has already been reported that Indoxam inhibits the enzymatic activities of IIA type and IB type secretory type PLA2 (Yokota et al., Biochim. Biophys. Acta (1999) 1438, 213-222). The PLA2 activities were determined by the measurement of the quantity of released ^14C-oleic acid from ^14C-labeled 1-palmitoyl-2-oleoyl-phosphatidylcholine (POPC), according to the Draheim et al.'s method (J. Med. Chem., (1996) 39, 5159-5175). In the solution composed of 50 mM Tris-HCl (pH 8.0), 200 mM NaCl, 2 mM CaCl2, and 1 mg/ml bovine serum albumin, the substrates composed of 1 mM POPC (the mixture of about 100,000 cpm ^14C-POPC and unlabeled POPC) and 3 mM deoxycholic acid were incubated with each secretory PLA2 in the presence of various concentrations of Indoxam at 40° C. for 60 min. Then, the quantity of released ^4C-oleic acid was measured. Purified materials were used in the case with human IB type (2 ng), IIA type (10 ng) and X type (4 ng). Human V type, IID type and the secretory type PLA2 of this invention (IIE type) were prepared from the culture supernatant of CHO cells that stably express them.
(§2) The quantity of released ^14C-oleic acid from ^14C-POPC by each human secretory type PLA2 in the absence of Indoxam was regarded as 100% and the quantity of released ^14C-oleic acid in the presence of each concentration of Indoxam was shown as %.

[2] = target: T2, human IIA type secretory PLA2 (Homo sapiens, UniProt P14555); assay: as above; assay type: biochemical; conditions: 14C-POPC substrate, 40° C., 60 min, various concentrations of Indoxam; FIG. 4
T2 sequence (P14555 21-144): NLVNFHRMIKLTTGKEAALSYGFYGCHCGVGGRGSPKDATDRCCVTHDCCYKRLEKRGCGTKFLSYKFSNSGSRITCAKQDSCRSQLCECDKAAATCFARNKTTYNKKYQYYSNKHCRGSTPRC
Protocol: as §1, §2

[3] = target: T3, human secretory type PLA2 of this invention (IIE type) (Homo sapiens, UniProt Q9NZK7); assay: as above; assay type: biochemical; conditions: 14C-POPC substrate, 40° C., 60 min, various concentrations of Indoxam; FIG. 4
T3 construct: made in house
T3 sequence (Q9NZK7 20-142): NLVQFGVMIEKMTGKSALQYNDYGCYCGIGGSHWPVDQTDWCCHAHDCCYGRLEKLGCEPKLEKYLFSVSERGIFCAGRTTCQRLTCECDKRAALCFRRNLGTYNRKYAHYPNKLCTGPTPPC
Protocol: as §1, §2

[4] = target: T4, IIA type secretory type PLA2 (Homo sapiens, UniProt P14555); conditions: already reported, Yokota et al., Biochim. Biophys. Acta (1999) 1438, 213-222; cited from earlier work
T4 sequence (P14555 21-144): T2 sequence (P14555 21-144)

[5] = target: IB type secretory type PLA2 (Homo sapiens, UniProt P04054); conditions: already reported, Yokota et al., Biochim. Biophys. Acta (1999) 1438, 213-222; cited from earlier work
Chain of IB type secretory type PLA2 (P04054 23-148): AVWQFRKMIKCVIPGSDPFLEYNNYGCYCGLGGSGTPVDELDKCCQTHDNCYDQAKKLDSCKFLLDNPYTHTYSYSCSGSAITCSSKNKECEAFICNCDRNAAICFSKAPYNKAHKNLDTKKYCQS

CCc1c(C(=O)C(N)=O)c2c(OCC(=O)O)cccn2c1Cc1ccccc1-c1ccccc1 [Indoxam]
inhibition of enzymatic activity of human IID type PLA2 [1]: strongly inhibits | inhibition of enzymatic activity of human IIA type PLA2 [2]: strongly inhibits | inhibition of enzymatic activity of human PLA2 of this invention (IIE type) [3]: strongly inhibits | inhibition of enzymatic activity of IIA type secretory type PLA2 [4]: inhibits | inhibition of enzymatic activity of IB type secretory type PLA2 [5]: inhibits
